This series relates to cancer cells. Kind of series: MTT cytotoxic assay of esterification products (Cytotoxicity activity). Type of series: cell-based, human. A digest of the protocol: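 Cytotoxicity was read by MTT (Carmichael method, modified), with cells seeded 24 h ahead of treatment. Sixteen human cancer lines spanning bone, lung, bladder, ovary, colon, pancreas, prostate, skin, mouth, kidney, breast, liver, brain, leukemia and cervix were used. Test samples were acyl chloride esterification products of triterpenes, as mixtures or HPLC-purified compounds.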

Where [1] appears, read: E4A esterified with Acetyl chloride (Acy = Acetyl), compounds isolated with HPLC.
The mark [2] stands for this setting: esterification products isolated with HPLC, graded strong / moderate / weak.
The mark [3] stands for this setting: E4A esterified with 2-propenoyl chloride (Ppe = Propenoyl), compounds isolated with HPLC.
[4] abbreviates: E4A esterified with Propionyl chloride (Ppi = Propionyl), compounds isolated with HPLC.
[5] abbreviates: E4A esterified with benzoyl chloride (Ben = benzoyl), compounds isolated with HPLC.
The mark [6] stands for this setting: esterification products of core compound E4A with (2E)-2-pentenoyl chloride (2pe = 2-pentenoyl).
Setting [7] is: esterification products of core compound E4A with Butyryl chloride (But = Butyryl).
Where [8] appears, read: esterification products of core compound E4A with Decanoyl chloride (Dec = Decanoyl).
[9] abbreviates: esterification products of core compound E4A with Isobutyryl chloride (Iso = Isobutyryl).
The mark [10] stands for this setting: esterification products of core compound E4A with Myristoyl chloride (Myr = Myristoyl).
Where [11] appears, read: esterification products of core compound E4A with Octanoyl chloride (Oct = Octanoyl).
The mark [12] stands for this setting: MTT cytotoxic assay, isolated esterification products of E4A.
Setting [13] is: E4A esterified with Cinnamoyl chloride (Cin = Cinnamoyl), compounds isolated with HPLC.

On to `CC(=O)OCC1(C)C(OC(C)=O)CCC2(C)C1CCC1(C)C2CC=C2C3CC(C)(C)C(OC(C)=O)C(OC(C)=O)C3(COC(C)=O)C(OC(C)=O)CC21C` (centres unmarked) [Compound H19], for which, under setting [1], the Cytotoxicity activity result is listed as “none”. Turning to `CC=C(C)C(=O)OCC1(C)C(O)CCC2(C)C1CCC1(C)C2CC=C2C3CC(C)(C)C(O)C(OC(=O)CCCCC)C3(COC(=O)C(C)=CC)C(O)CC21C` (centres unmarked) [Tig—R—Hex—3], the Cytotoxicity activity result under setting [2] is “moderate”. `CC1(C)CC2C3=CCC4C5(C)CCC(O)C(C)(COC(=O)c6ccccc6)C5CCC4(C)C3(C)CC(OC(=O)c3ccccc3)C2(COC(=O)c2ccccc2)C(OC(=O)c2ccccc2)C1O` (centres unmarked) [Compound K12]: the Cytotoxicity activity entry under setting [3] is given as “weak”; the Cytotoxicity activity result under setting [4] was “weak”; the Cytotoxicity activity entry under setting [5] is “weak”; the Cytotoxicity activity entry under setting [6] is recorded as “weak”; the Cytotoxicity activity result under setting [7] is given as “weak”; the Cytotoxicity activity entry under setting [8] is “weak”. Also, the Cytotoxicity activity result was “weak” under setting [9], “weak” under setting [10] and “weak” under setting [11]. As for `CC=C(C)C(=O)OCC1(C)C(OC(=O)C(CC)CC)CCC2(C)C1CCC1(C)C2CC=C2C3CC(C)(C)C(O)C(OC(=O)C(CC)CC)C3(COC(=O)C(C)=CC)C(O)CC21C` (centres unmarked) [Tig—R—Eth—6], under setting [2], the Cytotoxicity activity result is “weak”. As for `C=CCCC(=O)OCC1(C)C(OC(=O)CCC=C)CCC2(C)C1CCC1(C)C2CC=C2C3CC(C)(C)C(O)C(O)C3(COC(=O)CCC=C)C(OC(=O)CCC=C)CC21C` (centres unmarked) [Compound C10], under setting [12], the Cytotoxicity activity entry was “weak”. For `CC=C(C)C(=O)OCC1(C)C(O)CCC2(C)C1CCC1(C)C2CC=C2C3CC(C)(C)C(O)C(OC(C)=O)C3(CO)C(O)CC21C` (centres unmarked) [Tig—Acy—6], the Cytotoxicity activity result under setting [2] is listed as “moderate”. On to `C=CCCC(=O)OCC1(C)C(OC(=O)CCC=C)CCC2(C)C1CCC1(C)C2CC=C2C3CC(C)(C)C(O)C(O)C3(COC(=O)CCC=C)C(O)CC21C` (centres unmarked) [Compound C6], for which, under setting [12], the Cytotoxicity activity entry is on record as “moderate”. For the compound `CC(=O)OCC1(C)C(OC(C)=O)CCC2(C)C1CCC1(C)C2CC=C2C3CC(C)(C)C(O)C(O)C3(COC(C)=O)C(OC(C)=O)CC21C` (centres unmarked) [Compound H10], the Cytotoxicity activity entry under setting [1] is “weak”. For the compound `CCC(CC)C(=O)OCC1(C)C(O)CCC2(C)C1CCC1(C)C2CC=C2C3CC(C)(C)C(OC(=O)C(CC)CC)C(OC(=O)C(CC)CC)C3(CO)C(O)CC21C` (centres unmarked) [Compound E21], the Cytotoxicity activity entry under setting [12] is “moderate”. Same read-out and setting: the result for `CC(C)=CC(=O)OCC12C(O)CC3(C)C(=CCC4C5(C)CCC(O)C(C)(CO)C5CCC43C)C1CC(C)(C)C(OC(=O)C=C(C)C)C2O` (centres unmarked) [Compound B25] reads “moderate”.

With `CC=C(C)C(=O)OCC1(C)C(OC(=O)C=C(C)C)CCC2(C)C1CCC1(C)C2CC=C2C3CC(C)(C)C(O)C(O)C3(COC(=O)C=C(C)C)C(O)CC21C` (centres unmarked) [Tig—Sen—4], under “esterification products of E4A—Tig—N with senecioyl chloride”, the Cytotoxicity activity entry is given as “moderate”. In the case of `CC=C(C)C(=O)OCC1(C)C(O)CCC2(C)C1CCC1(C)C2CC=C2C3CC(C)(C)C(OC(=O)C(C)=CC)C(O)C3(COC(=O)C(C)=CC)C(O)CC21C` (centres unmarked) [Compound A4], under setting [12], the Cytotoxicity activity result was “moderate”. For the compound `CC1(C)CC2C3=CCC4C5(C)CCC(O)C(C)(CO)C5CCC4(C)C3(C)CC(OC(=O)C=Cc3ccccc3)C2(CO)C(OC(=O)C=Cc2ccccc2)C1OC(=O)C=Cc1ccccc1` (centres unmarked) [Compound J22], the Cytotoxicity activity entry under setting [13] is given as “moderate”. Take `CC(C)=CC(=O)OCC1(C)C(O)CCC2(C)C1CCC1(C)C2CC=C2C3CC(C)(C)C(OC(=O)C=C(C)C)C(O)C3(COC(=O)C=C(C)C)C(OC(=O)C=C(C)C)CC21C` (centres unmarked) [Compound B13]: the Cytotoxicity activity result under setting [12] was “weak”. Take `C=CCCC(=O)OC1C(O)C(C)(C)CC2C3=CCC4C5(C)CCC(O)C(C)(COC(=O)C(C)=CC)C5CCC4(C)C3(C)CC(O)C21CO` (centres unmarked) [Tig—Pen—6]: the Cytotoxicity activity entry under setting [2] is reported as “moderate”. For the compound `CC(=O)OCC1(C)C(O)CCC2(C)C1CCC1(C)C2CC=C2C3CC(C)(C)C(O)C(OC(C)=O)C3(CO)C(O)CC21C` (centres unmarked) [Compound H30], the Cytotoxicity activity entry under setting [1] is “moderate”. With `CC1(C)CC2C3=CCC4C5(C)CCC(O)C(C)(CO)C5CCC4(C)C3(C)CC(OC(=O)c3ccccc3)C2(CO)C(OC(=O)c2ccccc2)C1OC(=O)c1ccccc1` (centres unmarked) [Compound K22], the Cytotoxicity activity entry by setting is: under setting [3], “moderate”; under setting [4], “moderate”; under setting [5], “moderate”; under setting [6], “moderate”; under setting [7], “moderate”; under setting [8], “moderate”. In addition, the Cytotoxicity activity result is “moderate” under setting [9], “moderate” under setting [10] and “moderate” under setting [11]. On to `CC1(C)CC2C3=CCC4C5(C)CCC(O)C(C)(COC(=O)C=Cc6ccccc6)C5CCC4(C)C3(C)CC(O)C2(CO)C(O)C1OC(=O)C=Cc1ccccc1` (centres unmarked) [Compound J29], for which, under setting [13], the Cytotoxicity activity entry is listed as “moderate”. The same measure, in the same setting: then `CC1(C)CC2C3=CCC4C5(C)CCC(OC(=O)C=Cc6ccccc6)C(C)(COC(=O)C=Cc6ccccc6)C5CCC4(C)C3(C)CC(OC(=O)C=Cc3ccccc3)C2(COC(=O)C=Cc2ccccc2)C(OC(=O)C=Cc2ccccc2)C1OC(=O)C=Cc1ccccc1` (centres unmarked) [Compound J19], with “none”.

For the compound `CC=C(C)C(=O)OCC1(C)C(OC(=O)C=C(C)C)CCC2(C)C1CCC1(C)C2CC=C2C3CC(C)(C)C(O)C(OC(=O)C=C(C)C)C3(COC(=O)C(C)=CC)C(O)CC21C` (centres unmarked) [Tig—R—Sen—6], the Cytotoxicity activity entry under setting [2] is “weak”. Turning to `CC1(C)CC2C3=CCC4C5(C)CCC(O)C(C)(COC(=O)C=Cc6ccccc6)C5CCC4(C)C3(C)CC(O)C2(COC(=O)C=Cc2ccccc2)C(OC(=O)C=Cc2ccccc2)C1O` (centres unmarked) [Compound J5], under setting [13], the Cytotoxicity activity result is “moderate”. On to `CC=CC(=O)OCC1(C)C(OC(=O)C=CC)CCC2(C)C1CCC1(C)C2CC=C2C3CC(C)(C)C(OC(=O)C=CC)C(O)C3(COC(=O)C=CC)C(O)CC21C` (centres unmarked) [Compound I11], for which, under “E4A esterified with Crotonoyl chloride (Cro = Crotonoyl), compounds isolated with HPLC”, the Cytotoxicity activity entry is listed as “weak”. Turning to `CC(C)=CC(=O)OCC1(C)C(OC(=O)C=C(C)C)CCC2(C)C1CCC1(C)C2CC=C2C3CC(C)(C)C(O)C(O)C3(CO)C(O)CC21C` (centres unmarked) [Compound B31], the Cytotoxicity activity result under setting [12] is recorded as “moderate”. On to `CCC(CC)C(=O)OCC12C(O)CC3(C)C(=CCC4C5(C)CCC(O)C(C)(CO)C5CCC43C)C1CC(C)(C)C(O)C2OC(=O)C(CC)CC` (centres unmarked) [Compound E26], for which the Cytotoxicity activity result under setting [12] was “moderate”. Regarding `CC=C(C)C(=O)OCC1(C)C(O)CCC2(C)C1CCC1(C)C2CC=C2C3CC(C)(C)C(OC(=O)C(C)=CC)C(O)C3(CO)C(O)CC21C` (centres unmarked) [Tig—Ang—5], the Cytotoxicity activity result under setting [2] is “moderate”. In the case of `CCCCCC(=O)OC1C(OC(=O)CCCCC)C2(CO)C(O)CC3(C)C(=CCC4C5(C)CCC(O)C(C)(CO)C5CCC43C)C2CC1(C)C` (centres unmarked) [Compound D24], the Cytotoxicity activity entry under setting [12] was “moderate”. Still for that read-out and setting: the result for `CCCCCC(=O)OCC12C(O)CC3(C)C(=CCC4C5(C)CCC(OC(=O)CCCCC)C(C)(CO)C5CCC43C)C1CC(C)(C)C(O)C2O` (centres unmarked) [Compound D27] reads “moderate”.

For the compound `CC1(C)CC2C3=CCC4C5(C)CCC(OC(=O)C=Cc6ccccc6)C(C)(COC(=O)C=Cc6ccccc6)C5CCC4(C)C3(C)CC(OC(=O)C=Cc3ccccc3)C2(COC(=O)C=Cc2ccccc2)C(O)C1OC(=O)C=Cc1ccccc1` (centres unmarked) [Compound J17], the Cytotoxicity activity result under setting [13] was “weak”.

`CC=C(C)C(=O)OCC12C(O)CC3(C)C(=CCC4C5(C)CCC(O)C(C)(CO)C5CCC43C)C1CC(C)(C)C(OC(=O)C(C)=CC)C2O` (centres unmarked) [Compound A25]: the Cytotoxicity activity result under setting [12] was “moderate”. With `CC(=O)OCC12C(O)CC3(C)C(=CCC4C5(C)CCC(O)C(C)(CO)C5CCC43C)C1CC(C)(C)C(OC(C)=O)C2OC(C)=O` (centres unmarked) [Compound H20], the Cytotoxicity activity entry under setting [1] was “moderate”. With `CC(=O)OCC12C(O)CC3(C)C(=CCC4C5(C)CCC(O)C(C)(CO)C5CCC43C)C1CC(C)(C)C(OC(C)=O)C2O` (centres unmarked) [Compound H25], the Cytotoxicity activity result under setting [1] was “moderate”. As for `C=CCCC(=O)OCC1(C)C(O)CCC2(C)C1CCC1(C)C2CC=C2C3CC(C)(C)C(OC(=O)CCC=C)C(O)C3(COC(=O)CCC=C)C(O)CC21C` (centres unmarked) [Compound C4], the Cytotoxicity activity result under setting [12] is recorded as “moderate”. On the same count and under the same terms, the result for `CC=C(C)C(=O)OCC1(C)C(OC(=O)C(C)=CC)CCC2(C)C1CCC1(C)C2CC=C2C3CC(C)(C)C(O)C(OC(=O)C(C)=CC)C3(COC(=O)C(C)=CC)C(OC(=O)C(C)=CC)CC21C` (centres unmarked) [Compound A18] reads “weak”. As to `CC=C(C)C(=O)OCC1(C)C(O)CCC2(C)C1CCC1(C)C2CC=C2C3CC(C)(C)C(OC(=O)C=Cc4ccccc4)C(O)C3(COC(=O)C=Cc3ccccc3)C(O)CC21C` (centres unmarked) [Tig—Cin—2], the Cytotoxicity activity entry under setting [2] was “moderate”. The same measure, in the same setting: then `C=CCCC(=O)OC1C(O)C2(CO)C(O)CC3(C)C(=CCC4C5(C)CCC(O)C(C)(COC(=O)C(C)=CC)C5CCC43C)C2CC1(C)C` (centres unmarked) [Tig—Pen—5], with “moderate”.

For `CC1(C)CC2C3=CCC4C5(C)CCC(OC(=O)C=Cc6ccccc6)C(C)(CO)C5CCC4(C)C3(C)CC(O)C2(COC(=O)C=Cc2ccccc2)C(O)C1O` (centres unmarked) [Compound J27], the Cytotoxicity activity entry under setting [13] was “moderate”. Turning to `CCC(CC)C(=O)OCC1(C)C(OC(=O)C(CC)CC)CCC2(C)C1CCC1(C)C2CC=C2C3CC(C)(C)C(OC(=O)C(CC)CC)C(O)C3(COC(=O)C(CC)CC)C(OC(=O)C(CC)CC)CC21C` (centres unmarked) [Compound E17], the Cytotoxicity activity result under setting [12] is “weak”.

The record behind these values is patent US20230340012A1, “NATURAL AND SYNTHETIC COMPOUNDS FOR TREATING CANCER AND OTHER DISEASES” (PACIFIC ARROW LIMITED, priority 2009, published 2023).
